What was measured:
[1] = molecular target: T1, 5-hydroxytryptamine receptor 1A (Rattus norvegicus, UniProt P19327); format: cell membranes, CHO-K1, Membrane; note: in other assays of this panel Not Active means under 50% inhibition at 10 µM
T1 sequence (P19327 whole entry): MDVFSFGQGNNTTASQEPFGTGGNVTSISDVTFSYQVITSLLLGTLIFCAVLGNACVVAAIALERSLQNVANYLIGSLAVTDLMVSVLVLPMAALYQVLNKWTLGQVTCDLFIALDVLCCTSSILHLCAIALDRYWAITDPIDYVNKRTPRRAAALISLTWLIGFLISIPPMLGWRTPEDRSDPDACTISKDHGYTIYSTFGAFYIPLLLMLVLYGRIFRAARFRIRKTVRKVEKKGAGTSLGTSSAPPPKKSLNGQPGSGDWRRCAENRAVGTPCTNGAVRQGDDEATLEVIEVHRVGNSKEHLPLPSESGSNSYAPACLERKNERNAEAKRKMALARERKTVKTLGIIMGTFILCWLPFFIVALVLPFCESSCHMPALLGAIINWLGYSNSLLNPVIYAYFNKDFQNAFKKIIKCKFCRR

[2] = molecular target: T2, Receptor-type tyrosine-protein phosphatase C (Homo sapiens, UniProt P08575); parameters: species or system Escherichia coli;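 note: inhibition of CD45 enzyme activity measured using DiFMUP as substrate; in other assays of this panel Not Active means under 50% inhibition at 10 µM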
T2 sequence (P08575 whole entry): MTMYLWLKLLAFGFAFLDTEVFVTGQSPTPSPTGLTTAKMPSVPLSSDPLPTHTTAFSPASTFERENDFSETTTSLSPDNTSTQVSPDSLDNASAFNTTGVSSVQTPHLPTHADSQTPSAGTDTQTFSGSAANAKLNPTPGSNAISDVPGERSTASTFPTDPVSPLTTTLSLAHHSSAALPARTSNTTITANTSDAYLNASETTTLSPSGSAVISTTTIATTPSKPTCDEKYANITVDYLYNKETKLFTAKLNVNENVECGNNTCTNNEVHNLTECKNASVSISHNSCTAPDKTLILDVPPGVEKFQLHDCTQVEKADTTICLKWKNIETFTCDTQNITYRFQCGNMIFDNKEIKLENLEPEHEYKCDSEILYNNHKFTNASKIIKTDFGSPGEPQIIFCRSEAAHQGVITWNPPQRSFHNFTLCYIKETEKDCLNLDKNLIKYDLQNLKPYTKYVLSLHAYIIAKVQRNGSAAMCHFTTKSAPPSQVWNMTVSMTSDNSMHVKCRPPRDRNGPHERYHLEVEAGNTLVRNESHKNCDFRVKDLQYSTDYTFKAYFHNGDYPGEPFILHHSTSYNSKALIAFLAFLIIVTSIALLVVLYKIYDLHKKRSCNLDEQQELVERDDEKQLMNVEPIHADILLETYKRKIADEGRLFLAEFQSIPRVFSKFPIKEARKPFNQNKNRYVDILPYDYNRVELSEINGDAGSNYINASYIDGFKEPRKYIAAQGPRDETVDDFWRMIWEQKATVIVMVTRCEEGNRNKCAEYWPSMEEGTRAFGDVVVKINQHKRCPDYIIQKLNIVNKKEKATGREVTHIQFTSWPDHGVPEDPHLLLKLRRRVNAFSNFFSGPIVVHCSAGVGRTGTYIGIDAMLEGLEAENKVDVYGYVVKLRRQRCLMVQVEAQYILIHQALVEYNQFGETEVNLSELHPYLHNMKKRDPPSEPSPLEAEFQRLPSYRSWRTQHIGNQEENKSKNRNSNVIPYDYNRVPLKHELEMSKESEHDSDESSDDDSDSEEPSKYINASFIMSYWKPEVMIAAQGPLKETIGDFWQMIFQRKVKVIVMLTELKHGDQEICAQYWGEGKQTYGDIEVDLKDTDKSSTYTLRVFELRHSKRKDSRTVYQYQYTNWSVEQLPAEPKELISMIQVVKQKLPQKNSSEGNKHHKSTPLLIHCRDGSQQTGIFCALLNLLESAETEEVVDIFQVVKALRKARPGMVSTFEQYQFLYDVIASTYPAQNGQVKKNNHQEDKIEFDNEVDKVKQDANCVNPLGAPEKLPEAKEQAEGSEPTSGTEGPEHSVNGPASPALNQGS

[3] = DRUGMATRIX: Phosphodiesterase PDE4 enzyme inhibition (substrate: [3H]cAMP + cAMP); details: u-937, Not Active = under 50% inhibition at 10 µM
Substance-P receptor = Substance-P receptor (Homo sapiens, UniProt P25103); format: cell membranes, CHO, Membrane; details: cho; note: in other assays of this panel Not Active means under 50% inhibition at 10 µM
Chain of Substance-P receptor (P25103 whole entry): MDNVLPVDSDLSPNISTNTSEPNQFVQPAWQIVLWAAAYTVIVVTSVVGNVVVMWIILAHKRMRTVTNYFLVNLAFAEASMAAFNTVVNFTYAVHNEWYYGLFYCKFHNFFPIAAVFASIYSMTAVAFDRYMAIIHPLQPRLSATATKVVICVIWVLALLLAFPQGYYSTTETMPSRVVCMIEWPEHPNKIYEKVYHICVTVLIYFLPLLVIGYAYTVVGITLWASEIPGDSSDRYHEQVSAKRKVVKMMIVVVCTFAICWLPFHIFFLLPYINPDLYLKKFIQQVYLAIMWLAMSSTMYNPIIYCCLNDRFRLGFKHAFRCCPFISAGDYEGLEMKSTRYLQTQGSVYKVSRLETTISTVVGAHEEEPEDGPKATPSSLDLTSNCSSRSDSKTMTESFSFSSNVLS

[4] = molecular target: T3, Amine oxidase [flavin-containing] A (Homo sapiens, UniProt P21397); test: DRUGMATRIX: Monoamine Oxidase MAO-A enzyme inhibition (substrate: Kynuramine); parameters: species or system BTI-TN-5B1-4; details: Not Active = under 50% inhibition at 10 µM
T3 sequence (P21397 whole entry): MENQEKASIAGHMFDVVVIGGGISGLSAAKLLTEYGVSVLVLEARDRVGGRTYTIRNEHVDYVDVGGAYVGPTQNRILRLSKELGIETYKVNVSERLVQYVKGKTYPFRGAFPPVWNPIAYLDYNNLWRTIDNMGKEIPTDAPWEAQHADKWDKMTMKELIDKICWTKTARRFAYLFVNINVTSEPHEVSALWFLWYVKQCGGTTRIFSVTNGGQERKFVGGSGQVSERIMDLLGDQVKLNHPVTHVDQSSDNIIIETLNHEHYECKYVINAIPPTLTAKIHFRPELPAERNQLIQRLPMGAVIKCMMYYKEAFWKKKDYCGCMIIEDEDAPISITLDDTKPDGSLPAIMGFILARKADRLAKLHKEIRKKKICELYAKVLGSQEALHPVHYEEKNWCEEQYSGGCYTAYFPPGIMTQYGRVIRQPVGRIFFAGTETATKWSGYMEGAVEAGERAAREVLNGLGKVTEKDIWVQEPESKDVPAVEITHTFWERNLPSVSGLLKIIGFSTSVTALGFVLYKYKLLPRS

[5] = molecular target: 5-hydroxytryptamine receptor 1B (Rattus norvegicus, UniProt P28564); format: cell membranes, Wistar, Cerebral cortex, Membrane; note: in other assays of this panel Not Active means under 50% inhibition at 10 µM
Chain of 5-hydroxytryptamine receptor 1B (P28564 whole entry): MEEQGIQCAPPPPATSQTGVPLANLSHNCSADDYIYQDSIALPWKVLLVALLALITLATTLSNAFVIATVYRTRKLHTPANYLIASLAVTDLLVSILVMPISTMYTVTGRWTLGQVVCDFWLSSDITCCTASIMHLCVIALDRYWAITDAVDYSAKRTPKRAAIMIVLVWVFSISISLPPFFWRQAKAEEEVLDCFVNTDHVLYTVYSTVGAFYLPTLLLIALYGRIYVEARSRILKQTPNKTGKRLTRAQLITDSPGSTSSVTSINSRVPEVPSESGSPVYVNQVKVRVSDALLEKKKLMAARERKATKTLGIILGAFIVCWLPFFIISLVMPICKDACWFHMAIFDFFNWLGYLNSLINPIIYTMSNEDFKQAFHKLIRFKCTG

Row | SMILES | IC50 ([1]; cho-k1) | IC50 [2] | IC50 ([3]; read-out: IC50) [µM] | IC50 (Substance-P receptor) | IC50 ([4]; bti-tn-5b1-4) | IC50 [5] | IC50 [3] | Ki [3] | IC50 ([4]; read-out: IC50) [nM] | IC50 ([1]; read-out: IC50) [nM] | Ki ([1]; read-out: Ki) [nM] | IC50 ([5]; read-out: IC50) [µM] | Ki ([5]; read-out: Ki) [nM]
1 | CCOc1nc2cccc(C(=O)O)c2n1Cc1ccc(-c2ccccc2-c2nnn[nH]2)cc1 | Not Active | Not Active | 0.276 | Not Active | Not Active | Not Active |  |  |  |  |  |  | 
2 | O=C(O)CCCc1cccs1 | Not Active | Not Active |  | Not Active | Not Active | Not Active | Not Active | Not Active |  |  |  |  | 
3 | COc1ccccc1N | Not Active | Not Active |  | Not Active | Not Active | Not Active | Not Active | Not Active |  |  |  |  | 
4 | O=C(c1ccccc1F)N1CCC(Cc2ccccc2)CC1 | Not Active | Not Active |  | Not Active | Not Active | Not Active | Not Active | Not Active |  |  |  |  | 
5 | Cc1c(O)cccc1C(=O)N[C@@H](CSc1ccccc1)[C@H](O)CN1C[C@H]2CCCC[C@H]2C[C@H]1C(=O)NC(C)(C)C | Not Active | Not Active |  | Not Active | Not Active | Not Active | Not Active | Not Active |  |  |  |  | 
6 | CC(O)COC[C@H]1O[C@@H]2O[C@H]3[C@H](O)[C@@H](O)[C@@H](O[C@H]4[C@H](O)[C@@H](O)[C@@H](O[C@H]5[C@H](O)[C@@H](O)[C@@H](O[C@H]6[C@H](O)[C@@H](O)[C@@H](O[C@H]7[C@H](O)[C@@H](O)[C@@H](O[C@H]8[C@H](O)[C@@H](O)[C@@H](O[C@H]1[C@H](O)[C@H]2O)O[C@@H]8COCC(C)O)O[C@@H]7COCC(C)O)O[C@@H]6COCC(C)O)O[C@@H]5COCC(C)O)O[C@@H]4COCC(C)O)O[C@@H]3COCC(C)O (stereo partly drawn) [2-HYDROXYPROPYL-BETA-CYCLODEXTRIN] | Not Active | Not Active |  | Not Active |  | Not Active | Not Active | Not Active | 167 |  |  |  | 
7 | NC(=O)c1cccc(N)c1 [3-AMINOBENZAMIDE] | Not Active | Not Active |  | Not Active | Not Active | Not Active | Not Active | Not Active |  |  |  |  | 
8 | C[C@H]1O[C@H](O[C@H]2[C@H](O)[C@@H](O)[C@@H](O[C@H]3[C@H](O)[C@@H](O)C(O)O[C@@H]3CO)O[C@@H]2CO)[C@H](O)[C@@H](O)[C@@H]1N[C@H]1C=C(CO)[C@@H](O)[C@H](O)[C@H]1O (some centres not stated) [ACARBOSE] | Not Active | Not Active |  | Not Active | Not Active | Not Active | Not Active | Not Active |  |  |  |  | 
9 | CC[C@H]1[C@@H]2C[C@H]3[C@@H]4N(C)c5ccccc5[C@]45C[C@@H]([C@@H]2[C@H]5O)N3[C@@H]1O [AJMALINE] | Not Active | Not Active |  | Not Active | Not Active | Not Active | Not Active | Not Active |  |  |  |  | 
10 | NC12CC3CC(CC(C3)C1)C2 [AMANTADINE] | Not Active | Not Active |  | Not Active | Not Active | Not Active | Not Active | Not Active |  |  |  |  | 
11 | NCCCNCCSP(=O)(O)O [AMIFOSTINE] | Not Active | Not Active |  | Not Active | Not Active | Not Active | Not Active | Not Active |  |  |  |  | 
12 | CN(C)CCC=C1c2ccccc2CCc2ccccc21 [AMITRIPTYLINE] |  | Not Active |  | Not Active | Not Active |  | Not Active | Not Active |  | 2000 | 1140 | 3.73 | 1690
13 | CC(=O)Oc1ccccc1C(=O)O [ASPIRIN] | Not Active | Not Active |  | Not Active | Not Active | Not Active | Not Active | Not Active |  |  |  |  | 
14 | CC(C)c1c(C(=O)Nc2ccccc2)c(-c2ccccc2)c(-c2ccc(F)cc2)n1CC[C@@H](O)C[C@@H](O)CC(=O)O [ATORVASTATIN] | Not Active | Not Active |  | Not Active | Not Active | Not Active | Not Active | Not Active |  |  |  |  | 
15 | CC(=O)OC[C@H]1O[C@@H](n2ncc(=O)[nH]c2=O)[C@H](OC(C)=O)[C@@H]1OC(C)=O [AZARIBINE] | Not Active | Not Active |  | Not Active | Not Active | Not Active | Not Active | Not Active |  |  |  |  | 
16 | C[C@H]1[C@H](NC(=O)/C(=N\OC(C)(C)C(=O)O)c2csc(N)n2)C(=O)N1S(=O)(=O)O [AZTREONAM] | Not Active | Not Active |  | Not Active | Not Active | Not Active | Not Active | Not Active |  |  |  |  | 
17 | O=C(O)CCNC(=O)c1ccc(/N=N/c2ccc(O)c(C(=O)O)c2)cc1 [BALSALAZIDE] | Not Active | Not Active |  | Not Active | Not Active | Not Active | Not Active | Not Active |  |  |  |  | 
18 | COc1cc(OC)c(C(=O)CCCN2CCCC2)c(OC)c1 [BUFLOMEDIL] | Not Active | Not Active |  | Not Active | Not Active | Not Active | Not Active | Not Active |  |  |  |  | 
19 | Cn1c(=O)c2c(ncn2C)n(C)c1=O [CAFFEINE] | Not Active | Not Active |  | Not Active | Not Active | Not Active | Not Active | Not Active |  |  |  |  | 
20 | ClC(Cl)(Cl)Cl [CARBON TETRACHLORIDE] | Not Active | Not Active |  | Not Active | Not Active | Not Active | Not Active | Not Active |  |  |  |  | 
21 | O=c1c(-c2ccc(O)cc2)coc2cc(O)cc(O)c12 [GENISTEIN] | Not Active | Not Active | 10.9 | Not Active |  | Not Active |  |  |  |  |  |  | 
22 | NNCCc1ccccc1 [PHENELZINE] | Not Active | Not Active |  | Not Active |  | Not Active | Not Active | Not Active |  |  |  |  | 

— ChEMBL document CHEMBL1909046, “DrugMatrix in vitro pharmacology data”
